Holding throughout (type): binding
One test addresses T1, F2RL2 (Homo sapiens, UniProt O00254).
T1 construct: purchased Promega (in-house HiBiT-GPCR construct library, NanoBRET)
T1 sequence (O00254 22-374): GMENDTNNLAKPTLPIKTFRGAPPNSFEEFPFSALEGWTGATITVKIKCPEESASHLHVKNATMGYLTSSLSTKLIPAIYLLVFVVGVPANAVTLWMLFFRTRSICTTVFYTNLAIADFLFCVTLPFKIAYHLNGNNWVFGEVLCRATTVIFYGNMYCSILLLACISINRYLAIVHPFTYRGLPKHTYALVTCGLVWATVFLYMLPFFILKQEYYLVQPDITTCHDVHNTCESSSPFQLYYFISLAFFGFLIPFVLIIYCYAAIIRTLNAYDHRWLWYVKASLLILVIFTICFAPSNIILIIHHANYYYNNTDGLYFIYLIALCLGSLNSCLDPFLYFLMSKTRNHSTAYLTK
The test can be described thus: NanoBRET screen HiBiT-F2RL2 in HEK293. The method, then: (§1) Each tracer candidate was screened across the entire library of HiBiT-GPCR constructs using NanoBRET as the detection modality. As depicted in Figure 4A, the specificity of interactions was evaluated through decrease in BRET due to competitive displacement of a bound tracer by excess parental compound. Each tracer was analyzed for binding to each HiBiT-GPCR fusion in the absence and in the presence of competing parental compound. Briefly, HEK293 cells were transfected with HiBiT-GPCR constructs diluted into promoterless DNA to reduce expression and maximize translocation to the cell surface. Each tracer candidate was then screened at concentrations of 1 μM and 0.1 μM across cells expressing these fusions. Cells were treated for 1.5 h with tracer either alone or in the presence of 20 μM competing parental compound (i.e., control). BRET was measured upon addition of purified LgBiT and subsequent complementation with HiBiT genetically fused to a GPCR. The specificity of interactions was assessed through a decrease in BRET signal due to competitive displacement of the bound tracer. To further gauge the robustness of these interactions, the fold response over the control (i.e., BRETtracer/BRETcontrol) was calculated. We chose a 1.5-fold response, which translates to ≥7-fold signal over noise as the minimal threshold required to score an interaction as positive. […]. Below we highlight the screening results obtained for our exemplary fluorescent tracers based on Clozapine, Amitriptyline and AZD1283.
(§2) HiBiT-GPCR DNA constructs were diluted in 10 mM Tris pH 8 to a final concentration of 0.01 μg/μL, arrayed in 96-well plates and stored at −20 °C. For transfection, HEK293 cells were suspended in Opti-MEM (without phenol red) supplemented with 2% fetal bovine serum (Seradigm) and 100 units/mL penicillin–streptomycin (Gibco) at a final concentration of 220,000 cells/mL and dispensed into white 96-well plates at 90 μL/well. Subsequent transfections and screens were carried using an Agilent Bravo Automated Liquid Handling Platform. First, the 96-well HiBiT DNA arrays were diluted 25-fold in Opti-MEM (without serum or phenol red) to a final concentration of 0.0004 μg/μL and 20 μL of the diluted DNAs were transferred into new 96-well plates. Next, promoterless carrier DNA (1 μg/μL) was diluted 25-fold (0.04 μg/μL) and then dispensed into the diluted arrays at 20 μL/well. Following brief mixing, Viafect transfection reagent (Promega) diluted 16-fold into Opti-MEM was dispensed into the plates at 40 μL/well. After mixing by pipetting, plates were incubated for 10 min on the pipetting station deck. The DNA-transfection reagent complexes were then added to plates containing cells. To facilitate the screen, 10 μL of DNA-transfection reagent complexes were added in duplicates to the top 4 and bottom 4 rows, resulting in two identical 48-well arrays per plate. Plates with transfected cells were incubated for 18–20 h at 37 °C/5% CO2. A screen of each tracer across the entire library using two different concentrations requires duplicate plates of transfected cells. Depending on the number of tracers being screened, transfections can be scaled up using the same ratios. The next day, for each tracer, four 20× screening solutions in tracer dilution buffer (Promega) were prepared: two duplicates at final concentration of 20 μM and two duplicates at a final concentration of 2 μM. A competing unmodified compound was added to one of each duplicate at a final concentration of 400 μM. The four resulting solutions were diluted 4-fold in Opti-MEM without serum or phenol red to generate 5× solutions (5 µM and 0.5 µM tracer +/− 100 μM competing compound). To screen the library, a BioTek MultiFlo FX liquid dispenser was used to dispense 22.5 µL of tracer solution to the top 4 rows and 22.5 µL tracer + competing compound solution to the 4 bottom rows. Plates were briefly mixed on an orbital shaker and incubated for 1.5 h at room temperature. […]

For another test, the target named is T2, NPY1R (Homo sapiens, UniProt P25929).
T2 construct: purchased Promega (in-house HiBiT-GPCR construct library, NanoBRET)
T2 sequence (P25929 1-384): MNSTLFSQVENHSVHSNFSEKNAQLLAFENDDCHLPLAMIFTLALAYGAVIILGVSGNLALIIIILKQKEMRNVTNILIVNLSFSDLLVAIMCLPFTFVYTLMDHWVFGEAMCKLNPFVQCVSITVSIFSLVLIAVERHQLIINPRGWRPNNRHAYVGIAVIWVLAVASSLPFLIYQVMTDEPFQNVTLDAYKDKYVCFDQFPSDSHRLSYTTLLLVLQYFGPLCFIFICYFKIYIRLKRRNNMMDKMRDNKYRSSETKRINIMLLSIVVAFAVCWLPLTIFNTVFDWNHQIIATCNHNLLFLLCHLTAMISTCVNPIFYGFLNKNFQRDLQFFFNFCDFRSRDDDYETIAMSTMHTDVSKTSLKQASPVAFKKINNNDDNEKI
The test is described as follows: NanoBRET screen HiBiT-NPY1R in HEK293. The method, then:
as §1, §2
For orientation: In BRET a luciferase serves as donor, and the signal depends on an acceptor being close.

In the next test the target is T3, CXCR1 (Homo sapiens, UniProt P25024).
T3 construct: purchased Promega (in-house HiBiT-GPCR construct library, NanoBRET)
T3 sequence (P25024 1-350): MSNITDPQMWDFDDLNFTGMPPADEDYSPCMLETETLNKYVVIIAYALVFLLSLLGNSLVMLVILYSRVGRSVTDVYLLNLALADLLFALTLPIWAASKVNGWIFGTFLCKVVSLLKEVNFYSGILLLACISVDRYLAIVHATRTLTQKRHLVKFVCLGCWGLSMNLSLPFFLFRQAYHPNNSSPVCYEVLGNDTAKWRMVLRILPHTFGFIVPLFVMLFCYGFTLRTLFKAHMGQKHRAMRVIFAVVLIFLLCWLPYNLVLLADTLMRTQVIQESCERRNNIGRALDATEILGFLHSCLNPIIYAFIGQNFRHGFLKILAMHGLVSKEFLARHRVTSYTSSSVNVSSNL
The test can be described thus: NanoBRET screen HiBiT-CXCR1 in HEK293. As to the method: as §1, §2

A further test deals with T4, HRH2 (Homo sapiens, UniProt P25021).
T4 construct: purchased Promega (in-house HiBiT-GPCR construct library, NanoBRET)
The test can be described thus: NanoBRET screen HiBiT-HRH2 in HEK293. The method, then: as §1, §2

The target in another test is T5, P2RY6 (Homo sapiens, UniProt Q15077).
T5 construct: purchased Promega (in-house HiBiT-GPCR construct library, NanoBRET)
The test can be described thus: NanoBRET screen HiBiT-P2RY6 in HEK293. As to the method: as §1, §2

Setting [1] is: tracer at 1μM, listed as amitriptyline-b-2-NB590.
Setting [2] is: tracer at 0.1μM, listed as amitriptyline-b-2-NB590.

T4 sequence (P25021 whole entry): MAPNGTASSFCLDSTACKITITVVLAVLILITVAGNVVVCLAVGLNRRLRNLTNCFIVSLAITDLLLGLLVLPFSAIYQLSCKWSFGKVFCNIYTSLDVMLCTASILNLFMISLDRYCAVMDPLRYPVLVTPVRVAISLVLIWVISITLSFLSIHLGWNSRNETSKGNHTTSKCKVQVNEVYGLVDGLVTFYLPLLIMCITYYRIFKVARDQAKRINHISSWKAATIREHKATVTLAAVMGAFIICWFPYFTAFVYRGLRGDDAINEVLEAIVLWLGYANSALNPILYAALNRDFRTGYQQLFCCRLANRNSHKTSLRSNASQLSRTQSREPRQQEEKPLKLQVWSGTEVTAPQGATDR
T5 sequence (Q15077 whole entry): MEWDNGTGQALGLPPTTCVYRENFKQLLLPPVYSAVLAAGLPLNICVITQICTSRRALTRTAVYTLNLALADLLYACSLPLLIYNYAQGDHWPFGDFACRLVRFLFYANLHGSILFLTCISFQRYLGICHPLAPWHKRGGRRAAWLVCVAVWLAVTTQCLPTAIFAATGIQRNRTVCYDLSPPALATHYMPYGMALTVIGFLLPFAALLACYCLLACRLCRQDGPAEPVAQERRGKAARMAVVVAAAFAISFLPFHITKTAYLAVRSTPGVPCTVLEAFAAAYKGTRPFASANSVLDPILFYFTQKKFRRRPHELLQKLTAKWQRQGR

As to `CN(C)CCC=C1c2ccccc2CCc2ccc(C(=O)NCCNC(=O)CCOCCOCCOCCOCCNC(=O)CCc3ccc4n3[B-](F)(F)[N+]3=C(c5ccc[nH]5)C=CC3=C4)cc21` [Amitriptyline-b-2-NB590], the “NanoBRET Fold Response” value on F2RL2 (tracer at 0.1μM) is reported as 1.16; on F2RL2 (setting [1]) it was 0.92; at NPY1R (setting [2]), 0.90; on NPY1R (setting [1]), 1.11; on CXCR1 (tracer at 0.1μM), 0.97; on CXCR1 (setting [1]), 1.11. The “NanoBRET Fold Response” value came to 0.85 on HRH2 (setting [2]), 1.05 on HRH2 (setting [1]), 1.04 on P2RY6 (setting [2]) and 0.95 on P2RY6 (setting [1]).

For the compound `COc1ccccc1N1CCN(CCCCN2C(=O)c3ccc(CNC(=O)CCOCCOCCOCCOCCNC(=O)CCc4ccc5n4[B-](F)(F)[N+]4=C(c6ccc[nH]6)C=CC4=C5)cc3C2=O)CC1` [NAN-190-2-NB590], the “NanoBRET Fold Response” value at F2RL2 (F2RL2, tracer 0.1μM) was found to be 1.02; on F2RL2 (F2RL2, tracer 1μM) it was 1.01; on NPY1R (NPY1R, tracer 0.1μM), 1.02; at NPY1R (NPY1R, tracer 1μM), 0.94; on CXCR1 (CXCR1, tracer 0.1μM), 0.97; on CXCR1 (CXCR1, tracer 1μM) it was 1.05. Moreover, the “NanoBRET Fold Response” value at HRH2 (HRH2, tracer 0.1μM) came to 0.94; at P2RY6 (P2RY6, tracer 0.1μM), 0.96; on P2RY6 (P2RY6, tracer 1μM), 1.17.

For `O=C(CCOCCOCCOCCOCCNC(=O)CCc1ccc2n1[B-](F)(F)[N+]1=C(c3ccc[nH]3)C=CC1=C2)NCCCN1CCN(C2=Nc3ccccc3Oc3ccc(Cl)cc32)CC1` [Loxapine-a-2-NB590], the “NanoBRET Fold Response” value was 1.03 on F2RL2 (F2RL2, tracer 0.1μM); 1.12 at F2RL2 (F2RL2, tracer 1μM); 0.94 on NPY1R (NPY1R, tracer 0.1μM); 1.09 at NPY1R (NPY1R, tracer 1μM); 1.02 on CXCR1 (CXCR1, tracer 0.1μM); 0.94 at CXCR1 (CXCR1, tracer 1μM). In addition, the “NanoBRET Fold Response” value at HRH2 (HRH2, tracer 0.1μM) was 0.79; on HRH2 (HRH2, tracer 1μM), 1.06; on P2RY6 (P2RY6, tracer 0.1μM) it was 1.26; on P2RY6 (P2RY6, tracer 1μM), 0.94.

For the compound `CCCn1c(=O)c2[nH]c(-c3ccc(OCC(=O)NCCNC(=O)CCOCCNC(=O)c4ccc(CNC(=O)CCc5ccc6n5[B-](F)(F)[N+]5=C(c7ccc[nH]7)C=CC5=C6)cc4)cc3)nc2n(CCC)c1=O` [XAC-3-NB590], the “NanoBRET Fold Response” value is given as 0.95 at F2RL2 (F2RL2, tracer 0.1μM); 1.04 on F2RL2 (F2RL2, tracer 1μM); 1.01 at NPY1R (NPY1R, tracer 0.1μM); 0.95 on NPY1R (NPY1R, tracer 1μM); 1.05 at CXCR1 (CXCR1, tracer 0.1μM); 0.91 at CXCR1 (CXCR1, tracer 1μM). In addition, the “NanoBRET Fold Response” value is reported as 0.82 at HRH2 (HRH2, tracer 0.1μM); 1.15 on HRH2 (HRH2, tracer 1μM); 1.06 at P2RY6 (P2RY6, tracer 0.1μM); 1.12 on P2RY6 (P2RY6, tracer 1μM).

For `CN(C)CCC=C1c2ccccc2CCc2ccc(C(=O)NCCNC(=O)CCOCCOCCOCCOCCNC(=O)CCc3ccc4n3[B-](F)(F)[N+]3=C(c5ccc[nH]5)C=CC3=C4)cc21` [Amitriptyline-a-2-NB590], the “NanoBRET Fold Response” value on F2RL2 (tracer at 0.1μM) amounted to 1.03; at F2RL2 (tracer at 1μM), 0.99; on NPY1R (tracer at 0.1μM), 1.00; on NPY1R (tracer at 1μM), 1.03; on CXCR1 (tracer at 0.1μM), 1.05; at CXCR1 (tracer at 1μM) it was 0.97. Besides, the “NanoBRET Fold Response” value on HRH2 (tracer at 0.1μM) is listed as 1.00; at HRH2 (tracer at 1μM) it was 0.99; on P2RY6 (tracer at 0.1μM), 1.00; at P2RY6 (tracer at 1μM), 0.94.

In the case of `CCOC(=O)c1cc(C#N)c(N2CCC(C(=O)NS(=O)(=O)Cc3ccccc3/C=C/C(=O)NCCNC(=O)CCc3ccc4n3[B-](F)(F)[N+]3=C(c5ccc[nH]5)C=CC3=C4)CC2)nc1C` [AZD1283-1-NB590], the “NanoBRET Fold Response” value on F2RL2 (F2RL2, 0.1μM) is 1.01; on F2RL2 (F2RL2, 1μM), 1.12; at NPY1R (NPY1R, 0.1μM) it was 1.10; at NPY1R (NPY1R, 1μM), 1.04; on CXCR1 (CXCR1, 0.1μM), 1.09; at CXCR1 (CXCR1, 1μM) it was 1.13. For the same compound, the “NanoBRET Fold Response” value at HRH2 (HRH2, 0.1μM) was 0.90; on HRH2 (HRH2, 1μM), 1.03; at P2RY6 (P2RY6, 0.1μM) it was 1.18; on P2RY6 (P2RY6, 1μM), 1.04.

(Values after paper PMC8151276, “An Integrated Approach toward NanoBRET Tracers for Analysis of GPCR Ligand Engagement” (Molecules, 2021).)
